The target in data set [1] is T1, Hexokinase-4 (Homo sapiens, UniProt P35557).
T1 sequence (P35557 whole entry): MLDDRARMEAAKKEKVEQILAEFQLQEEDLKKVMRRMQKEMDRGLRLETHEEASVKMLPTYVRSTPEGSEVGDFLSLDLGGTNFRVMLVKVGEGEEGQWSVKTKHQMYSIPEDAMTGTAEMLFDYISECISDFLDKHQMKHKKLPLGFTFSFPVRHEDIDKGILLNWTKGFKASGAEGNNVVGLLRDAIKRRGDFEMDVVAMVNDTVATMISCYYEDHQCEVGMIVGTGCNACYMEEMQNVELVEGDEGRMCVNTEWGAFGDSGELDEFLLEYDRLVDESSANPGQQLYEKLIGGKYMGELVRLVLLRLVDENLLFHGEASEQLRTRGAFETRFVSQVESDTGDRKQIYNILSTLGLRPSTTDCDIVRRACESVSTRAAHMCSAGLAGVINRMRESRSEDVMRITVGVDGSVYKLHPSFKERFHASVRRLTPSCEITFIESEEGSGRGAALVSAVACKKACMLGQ
In words: Activation of glucokinase (unknown origin).

Data set [2] can be described thus: Oral bioavailability in rat. The class given is ADME, organism-based. As to conditions: in vivo.
The nature of data set [3]: Apparent permeability from apical to basolateral side of human Caco2 cells. In kind it is ADME, cell-based. As to conditions: Caco-2.
The nature of data set [4]: Clearance in rat. In kind it is ADME, organism-based. As to conditions: in vivo.
Data set [5] in a line: Solubility of the compound. The class given is physicochemical.
Data set [6] is described as follows: Volume of distribution at steady state in rat. The class given is ADME, organism-based. As to conditions: in vivo, read-out: Vdss.
Data set [7] is described as follows: Lipophilicity, log D of the compound. The class given is physicochemical. As to conditions: octanol/water.
In data set [8] the target is Voltage-gated inwardly rectifying potassium channel KCNH2 (Homo sapiens, UniProt Q12809). In words: Inhibition of human ERG.
Chain of Voltage-gated inwardly rectifying potassium channel KCNH2 (Q12809 whole entry): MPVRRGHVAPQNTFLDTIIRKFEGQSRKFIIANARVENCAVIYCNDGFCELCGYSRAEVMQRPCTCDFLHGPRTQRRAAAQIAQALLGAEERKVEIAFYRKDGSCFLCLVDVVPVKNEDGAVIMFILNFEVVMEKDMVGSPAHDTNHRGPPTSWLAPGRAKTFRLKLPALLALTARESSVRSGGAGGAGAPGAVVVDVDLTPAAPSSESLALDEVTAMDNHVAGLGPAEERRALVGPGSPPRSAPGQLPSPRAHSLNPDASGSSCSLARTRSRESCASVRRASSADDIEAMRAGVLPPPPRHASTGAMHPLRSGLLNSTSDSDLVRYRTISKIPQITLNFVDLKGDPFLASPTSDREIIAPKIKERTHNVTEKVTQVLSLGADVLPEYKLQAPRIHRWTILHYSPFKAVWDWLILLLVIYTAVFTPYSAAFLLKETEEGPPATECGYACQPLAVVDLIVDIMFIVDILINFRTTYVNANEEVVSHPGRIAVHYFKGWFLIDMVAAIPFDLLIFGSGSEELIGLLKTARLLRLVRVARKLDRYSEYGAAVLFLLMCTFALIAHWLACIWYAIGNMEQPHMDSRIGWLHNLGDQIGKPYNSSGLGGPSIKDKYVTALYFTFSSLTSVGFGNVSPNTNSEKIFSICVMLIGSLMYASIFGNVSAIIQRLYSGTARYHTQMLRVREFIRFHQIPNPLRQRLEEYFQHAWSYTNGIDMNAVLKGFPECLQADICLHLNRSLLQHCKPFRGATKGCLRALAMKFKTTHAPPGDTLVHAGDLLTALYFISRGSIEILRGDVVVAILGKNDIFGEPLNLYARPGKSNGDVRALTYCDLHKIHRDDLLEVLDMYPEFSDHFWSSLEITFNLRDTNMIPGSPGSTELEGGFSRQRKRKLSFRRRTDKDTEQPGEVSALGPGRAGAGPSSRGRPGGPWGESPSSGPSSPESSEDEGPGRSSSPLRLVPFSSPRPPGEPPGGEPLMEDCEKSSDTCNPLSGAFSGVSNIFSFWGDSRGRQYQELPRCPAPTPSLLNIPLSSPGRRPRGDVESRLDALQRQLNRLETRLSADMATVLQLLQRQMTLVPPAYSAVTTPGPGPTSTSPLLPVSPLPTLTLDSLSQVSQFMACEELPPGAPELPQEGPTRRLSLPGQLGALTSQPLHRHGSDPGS
Data set [9] is described as follows: Oral bioavailability in dog. As to conditions: in vivo. In kind it is ADME, organism-based, Canis lupus familiaris.
A short description of data set [10]: Clearance in dog. The class given is ADME, organism-based, Canis lupus familiaris. As to conditions: in vivo.
In data set [11] the test system is Rattus norvegicus. In words: Antidiabetic activity in high fat fed Zucker rat assessed as reduction of AUC of plasma glucose level at 10 mg/kg by oral glucose tolerance test. Further details: scale not given: the % may be the effect or the level left. In kind it is functional.
Data set [12] can be described thus: Volume of distribution at steady state in dog. The class given is ADME, organism-based, Canis lupus familiaris. As to conditions: in vivo, read-out: Vdss.
The test system of data set [13] is Rattus norvegicus. The data set is described as follows: Antidiabetic activity in high fat fed Zucker rat assessed as reduction of AUC of plasma glucose level at 3 mg/kg by oral glucose tolerance test. Also noted: scale not given: the % may be the effect or the level left. The class given is functional.

≈ marks a conversion by molar mass, not a printed value.

The term EC50 denotes the concentration needed to bring the measured effect to its halfway point. By bioavailability is commonly meant dose-corrected exposure relative to a reference, in per cent. The term Papp A→B denotes how fast a substance crosses the layer from the apical side. What is called clearance is the volume of plasma or blood freed of the substance per unit of time. The term solubility denotes how much of the substance goes into solution per volume. In general, logD refers to lipophilicity at a set pH, counting ionised and neutral species. Usually IC50 stands for the concentration needed to halve the response being measured.

`COC[C@H](C)Oc1cc(Oc2ccc(C(=O)N(C)C)cc2)cc(C(=O)Nc2cc[nH]n2)c1`: the EC50 in [1] was determined as 50 nM. The compound also showed a bioavailability in data set [2] of 27%. Besides, in data set [3], the Papp A→B was determined as 2.3 ×10⁻⁶ cm/s. In data set [4], the clearance amounted to 34 mL/min/kg. The solubility in data set [5] was determined as 730 µM (≈ 320 µg/mL). Moreover, the Vd in [6] is 1.1 L/kg. Also, the logD in [7] was found to be 1.8. The compound further came in with an IC50 in data set [8] greater than 95000 nM.

On to `COC[C@H](C)Oc1cc(Oc2ccc(S(C)(=O)=O)cc2)cc(C(=O)Nc2nccs2)c1`, for which the bioavailability in [2] is 28%; in data set [9] it was 11%. Further, the figures for the clearance in data set [10] and in data set [4] were 7.2 mL/min/kg and 11 mL/min/kg, respectively. For the same compound, the Vd in data set [6] worked out at 0.3 L/kg; in data set [12], 0.8 L/kg. Besides, the Activity in [11] came out at 29%.

Regarding `COC[C@H](C)Oc1cc(Oc2ccc(S(C)(=O)=O)cc2)cc(C(=O)Nc2nc(C)ns2)c1`, the bioavailability was 71% in data set [2] and 56% in [9]. Besides, the results for the clearance in data set [10] and in [4] were 0.5 mL/min/kg and 5.6 mL/min/kg, respectively. Further, the Vd in data set [6] was 0.2 L/kg; in data set [12] it was 0.3 L/kg. In [13], the Activity is 27%.

On to `C[C@@H](CO)Oc1cc(Oc2ccc(C(=O)N(C)C)cc2)cc(C(=O)Nc2ccn(C)n2)c1`, for which the EC50 in data set [1] came out at 40 nM. Further, the bioavailability in data set [2] amounted to 78%. Besides, the Papp A→B in [3] was determined as 1.7 ×10⁻⁶ cm/s. The compound further displayed a clearance in data set [4] of 31 mL/min/kg. The solubility in data set [5] is greater than 1000 µM. Further, the Vd in data set [6] amounted to 1.9 L/kg. This compound also registered a logD in data set [7] of 1.7. In [8], this compound returned an IC50 greater than 100000 nM.

For the compound `C[C@@H](CO)Oc1cc(Oc2ccc(C(=O)N3CCC3)cc2)cc(C(=O)Nc2ccn(C)n2)c1`, the midpoint of the response in data set [1], the EC50, lay at 30 nM. The bioavailability was 30% in [2] and 51% in [9]. Moreover, the clearance in [10] and in [4] was 14 mL/min/kg in each case. The Papp A→B in data set [3] was 1.8 ×10⁻⁶ cm/s. This compound displayed a solubility in data set [5] of 350 µM (≈ 158 µg/mL). For the same compound, the Vd was found to be 1.8 L/kg in data set [6] and 1.3 L/kg in [12]. For the same compound, in [7], the logD came to 1.8. Further, the Activity in [13] is recorded as 24%. Also, the IC50 in data set [8] amounted to 70000 nM.

The values are drawn from ChEMBL document CHEMBL3217434, “Matrix-based multiparameter optimisation of glucokinase activators: the discovery of AZD1092” (Medchemcomm, 2011).
